From ChEMBL document CHEMBL1143309, “Bisubstrate Inhibitors of the MYST HATs Esa1 and Tip60” (Bioorg Med Chem, 2009)

Tests used:
[1] = Inhibition of His6x-tagged yeast recombinant Esa1 (105-445) expressed in Escherichia coli BL21 (DE3) by liquid scintillation; set-up: species or system Saccharomyces cerevisiae
[2] = molecular target: T1, Histone acetyltransferase KAT5 (Homo sapiens, UniProt Q92993); experiment: Inhibition of recombinant Tip60 (1-513) expressed in Escherichia coli BL21 (DE3) by liquid scintillation
T1 sequence (Q92993 whole entry): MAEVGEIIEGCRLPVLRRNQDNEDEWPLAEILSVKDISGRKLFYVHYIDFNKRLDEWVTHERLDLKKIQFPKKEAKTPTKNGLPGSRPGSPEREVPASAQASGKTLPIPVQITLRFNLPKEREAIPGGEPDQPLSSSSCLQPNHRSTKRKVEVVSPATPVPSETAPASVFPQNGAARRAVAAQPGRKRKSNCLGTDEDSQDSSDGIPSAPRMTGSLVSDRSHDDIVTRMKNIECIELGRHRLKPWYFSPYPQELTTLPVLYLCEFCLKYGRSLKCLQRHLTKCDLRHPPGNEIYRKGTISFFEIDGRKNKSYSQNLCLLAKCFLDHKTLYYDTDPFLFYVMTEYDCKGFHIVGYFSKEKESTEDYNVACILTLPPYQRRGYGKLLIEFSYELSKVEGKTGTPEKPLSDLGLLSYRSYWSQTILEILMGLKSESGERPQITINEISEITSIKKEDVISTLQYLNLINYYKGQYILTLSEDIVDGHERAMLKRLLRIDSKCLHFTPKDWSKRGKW

[3] = molecular target: Histone acetyltransferase p300 (Homo sapiens, UniProt Q09472); experiment: Inhibition of recombinant p300
Sequence of Histone acetyltransferase p300 (Q09472 whole entry, the tested form may be a part): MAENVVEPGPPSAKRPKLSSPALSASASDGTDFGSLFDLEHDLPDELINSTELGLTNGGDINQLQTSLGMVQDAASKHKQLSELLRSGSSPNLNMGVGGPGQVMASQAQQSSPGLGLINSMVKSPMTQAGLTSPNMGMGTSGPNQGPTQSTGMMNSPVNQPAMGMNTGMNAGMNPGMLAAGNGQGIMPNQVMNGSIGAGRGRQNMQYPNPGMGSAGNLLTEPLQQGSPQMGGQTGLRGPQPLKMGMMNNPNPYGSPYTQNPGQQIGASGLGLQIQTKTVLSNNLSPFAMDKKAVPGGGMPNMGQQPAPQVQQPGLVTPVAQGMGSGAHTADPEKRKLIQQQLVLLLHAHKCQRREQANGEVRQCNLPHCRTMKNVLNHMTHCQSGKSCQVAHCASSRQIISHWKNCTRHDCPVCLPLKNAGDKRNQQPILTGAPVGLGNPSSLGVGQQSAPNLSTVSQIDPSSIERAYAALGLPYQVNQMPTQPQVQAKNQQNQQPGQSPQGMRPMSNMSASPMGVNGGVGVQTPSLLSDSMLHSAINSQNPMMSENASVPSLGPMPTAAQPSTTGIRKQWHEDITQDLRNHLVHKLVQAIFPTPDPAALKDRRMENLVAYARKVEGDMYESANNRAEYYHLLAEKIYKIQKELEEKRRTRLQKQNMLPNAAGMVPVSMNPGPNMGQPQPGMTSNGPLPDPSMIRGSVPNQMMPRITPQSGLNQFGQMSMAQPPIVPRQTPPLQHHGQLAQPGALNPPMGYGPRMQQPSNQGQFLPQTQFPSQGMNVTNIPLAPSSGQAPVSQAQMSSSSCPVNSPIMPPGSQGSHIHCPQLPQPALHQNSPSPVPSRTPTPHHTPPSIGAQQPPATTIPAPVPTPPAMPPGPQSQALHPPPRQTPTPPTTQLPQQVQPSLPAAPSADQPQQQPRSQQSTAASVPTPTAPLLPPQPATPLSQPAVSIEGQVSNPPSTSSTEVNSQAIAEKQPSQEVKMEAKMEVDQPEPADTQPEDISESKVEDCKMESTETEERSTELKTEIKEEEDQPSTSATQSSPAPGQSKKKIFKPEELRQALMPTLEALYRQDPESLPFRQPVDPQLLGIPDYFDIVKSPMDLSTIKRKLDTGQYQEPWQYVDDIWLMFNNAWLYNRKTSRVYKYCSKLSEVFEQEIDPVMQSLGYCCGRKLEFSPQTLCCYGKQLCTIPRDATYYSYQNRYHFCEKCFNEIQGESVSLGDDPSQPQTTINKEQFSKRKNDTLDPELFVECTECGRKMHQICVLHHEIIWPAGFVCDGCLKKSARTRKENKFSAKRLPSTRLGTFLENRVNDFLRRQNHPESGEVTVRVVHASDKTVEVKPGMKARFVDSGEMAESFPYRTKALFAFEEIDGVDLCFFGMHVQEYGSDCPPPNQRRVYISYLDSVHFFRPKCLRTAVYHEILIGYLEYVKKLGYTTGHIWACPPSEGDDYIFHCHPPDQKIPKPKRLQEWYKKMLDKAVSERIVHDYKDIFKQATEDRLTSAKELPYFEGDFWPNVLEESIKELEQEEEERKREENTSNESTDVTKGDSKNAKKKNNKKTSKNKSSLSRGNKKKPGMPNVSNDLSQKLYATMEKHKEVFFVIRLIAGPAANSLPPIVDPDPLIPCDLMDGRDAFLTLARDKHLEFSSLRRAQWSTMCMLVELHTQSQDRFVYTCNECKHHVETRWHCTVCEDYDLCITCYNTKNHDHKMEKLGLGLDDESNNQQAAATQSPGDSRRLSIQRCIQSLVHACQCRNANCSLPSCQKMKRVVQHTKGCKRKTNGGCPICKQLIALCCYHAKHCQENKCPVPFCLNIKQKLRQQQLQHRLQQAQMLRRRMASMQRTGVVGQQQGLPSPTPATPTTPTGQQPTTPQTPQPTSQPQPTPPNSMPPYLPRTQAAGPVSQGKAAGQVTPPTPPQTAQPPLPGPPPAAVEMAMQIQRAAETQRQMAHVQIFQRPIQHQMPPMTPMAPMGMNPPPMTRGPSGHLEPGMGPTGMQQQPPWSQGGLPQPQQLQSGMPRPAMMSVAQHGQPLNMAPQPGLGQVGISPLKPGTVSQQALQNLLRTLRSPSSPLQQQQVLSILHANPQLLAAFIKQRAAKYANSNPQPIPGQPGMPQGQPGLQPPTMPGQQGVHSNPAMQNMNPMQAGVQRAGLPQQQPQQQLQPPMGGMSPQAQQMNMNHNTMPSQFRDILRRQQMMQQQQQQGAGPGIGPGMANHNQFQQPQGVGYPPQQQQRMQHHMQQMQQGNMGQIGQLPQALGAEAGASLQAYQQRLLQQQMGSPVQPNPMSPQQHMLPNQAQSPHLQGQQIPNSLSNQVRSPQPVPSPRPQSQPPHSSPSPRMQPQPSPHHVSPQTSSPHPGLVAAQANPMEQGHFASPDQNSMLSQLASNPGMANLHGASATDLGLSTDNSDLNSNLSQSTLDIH

[4] = molecular target: Histone acetyltransferase KAT2B (Homo sapiens, UniProt Q92831); experiment: Inhibition of PCAF HAT domain (493-658) expressed in Escherichia coli BL21 (DE3)
Sequence of Histone acetyltransferase KAT2B (Q92831 whole entry, the tested form may be a part): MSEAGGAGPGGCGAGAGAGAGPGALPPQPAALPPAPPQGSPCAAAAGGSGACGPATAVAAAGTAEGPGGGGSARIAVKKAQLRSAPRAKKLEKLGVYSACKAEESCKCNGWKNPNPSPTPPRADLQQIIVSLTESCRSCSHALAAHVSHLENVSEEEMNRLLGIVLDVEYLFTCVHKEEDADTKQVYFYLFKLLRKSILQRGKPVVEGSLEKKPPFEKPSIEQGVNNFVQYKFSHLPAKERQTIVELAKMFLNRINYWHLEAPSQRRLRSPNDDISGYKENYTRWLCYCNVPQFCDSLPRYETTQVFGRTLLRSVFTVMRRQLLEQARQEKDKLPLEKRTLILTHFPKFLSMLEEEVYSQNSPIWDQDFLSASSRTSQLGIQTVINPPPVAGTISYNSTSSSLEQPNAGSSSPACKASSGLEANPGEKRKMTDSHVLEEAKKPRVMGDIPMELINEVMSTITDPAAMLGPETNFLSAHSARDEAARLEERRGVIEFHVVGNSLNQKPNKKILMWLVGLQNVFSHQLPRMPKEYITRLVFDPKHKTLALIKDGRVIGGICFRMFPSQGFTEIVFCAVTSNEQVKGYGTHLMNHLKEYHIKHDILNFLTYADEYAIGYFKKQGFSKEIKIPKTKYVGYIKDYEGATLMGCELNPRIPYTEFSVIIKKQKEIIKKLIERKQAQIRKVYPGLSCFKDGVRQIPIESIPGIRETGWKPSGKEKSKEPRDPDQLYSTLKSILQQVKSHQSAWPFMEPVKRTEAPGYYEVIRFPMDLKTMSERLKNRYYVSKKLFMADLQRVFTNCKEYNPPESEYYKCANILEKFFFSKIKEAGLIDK

[5] = molecular target: T1, Histone acetyltransferase KAT5; experiment: Inhibition of TIP60 in human HeLa cell extracts by ELISA

Row | IC50 [1] | IC50 [2] | IC50 [3] | IC50 [4] | IC50 [5] | SMILES
1 | 7 µM | 29.8 µM | 0.98 µM | 108 µM |  | CC(=O)N[C@@H](CCCCNC(=O)CSCCNC(=O)CCNC(=O)[C@H](O)C(C)(C)COP(=O)(O)OP(=O)(O)OC[C@H]1O[C@@H](n2cnc3c(N)ncnc32)[C@H](O)[C@@H]1OP(=O)(O)O)C(N)=O
2 | 297 µM | 375 µM | > 1000 µM | 667 µM | 9 µM | C=CC/C=C\C/C=C\CCCCCCCc1cccc(O)c1C(=O)O [ANACARDIC ACID]
3 | 68.6 µM | 82.3 µM | 45.9 µM | 41.9 µM |  | CC(C)(COP(=O)(O)OP(=O)(O)OC[C@H]1O[C@@H](n2cnc3c(N)ncnc32)[C@H](O)[C@@H]1OP(=O)(O)O)[C@@H](O)C(=O)NCCC(=O)NCCS [COENZYME_A]
4 | > 150 µM | > 200 µM |  |  |  | COc1cc(/C=C/C(=O)CC(=O)/C=C/c2ccc(O)c(OC)c2)ccc1O [CURCUMIN]
